Source: publication PMC5675004 (Cancer cell, 2015)

Key:
[1] = test system: PPT CGNPs infected with SMO-WT and Cre; assay: PPT CGNP proliferation, methyl-[3H]-thymidine incorporation; format: cell-based, mouse; details: for proliferation in the presence of SMO inhibitor: 500 nM of compound
[2] = test system: PPT CGNPs expressing vismodegib-resistant SMO mutants; assay: as above; format: cell-based, mouse; details: for proliferation in the presence of SMO inhibitor: 500 nM of compound, SMO-mutant expressing cells
SMO-N219D = SMO-N219D (Homo sapiens, UniProt Q99835, N219D); assay: Gli-luciferase based Hh reporter assay; format: cell-based; details: 1 μM vismodegib, C3H10T½ cells
SMO-D384N = SMO-D384N (Homo sapiens, UniProt Q99835, D384N); assay: Gli-luciferase based Hh reporter assay; format: cell-based; details: 1 μM vismodegib, C3H10T½ cells
SMO-S387N = SMO-S387N (Homo sapiens, UniProt Q99835, S387N); assay: Gli-luciferase based Hh reporter assay; format: cell-based; details: 1 μM vismodegib, C3H10T½ cells
SMO-I408V = SMO-I408V (Homo sapiens, UniProt Q99835, I408V); assay: [3H]-vismodegib binding to transfected HEK-293 cells; details: compared with SMO-WT at similar cell surface levels
activating SMO mutants = assay: as above; details: all activating mutants tested, cell surface expression comparable to SMO-WT
[3] = test system: PPT CGNPs infected with SMO DBP mutants; assay: PPT CGNP proliferation, methyl-[3H]-thymidine incorporation; format: cell-based, mouse; details: high levels of vismodegib (>1 μM)
[4] = test system: PPT CGNPs infected with SMO-C469Y; assay: as above; format: cell-based, mouse; details: 5 μM vismodegib
[5] = test system: SMO-T241M expressing CGNPs; assay: as above; format: cell-based, mouse; details: vismodegib dose response after removal of SHH ligand
[6] = test system: SMO-A459V expressing CGNPs; assay: as above; format: cell-based, mouse; details: vismodegib dose response after removal of SHH ligand
[7] = test system: SMO-W535L expressing CGNPs; assay: as above; format: cell-based, mouse; details: vismodegib dose response after removal of SHH ligand
SMO-D473H = details: mutation from relapsed metastatic MB; ref Yauch et al., 2009; cited from earlier work
advanced BCC patients = details: ref Chang and Oro, 2012; cited from earlier work

Chain of SMO-N219D (Q99835 28-787 N219D): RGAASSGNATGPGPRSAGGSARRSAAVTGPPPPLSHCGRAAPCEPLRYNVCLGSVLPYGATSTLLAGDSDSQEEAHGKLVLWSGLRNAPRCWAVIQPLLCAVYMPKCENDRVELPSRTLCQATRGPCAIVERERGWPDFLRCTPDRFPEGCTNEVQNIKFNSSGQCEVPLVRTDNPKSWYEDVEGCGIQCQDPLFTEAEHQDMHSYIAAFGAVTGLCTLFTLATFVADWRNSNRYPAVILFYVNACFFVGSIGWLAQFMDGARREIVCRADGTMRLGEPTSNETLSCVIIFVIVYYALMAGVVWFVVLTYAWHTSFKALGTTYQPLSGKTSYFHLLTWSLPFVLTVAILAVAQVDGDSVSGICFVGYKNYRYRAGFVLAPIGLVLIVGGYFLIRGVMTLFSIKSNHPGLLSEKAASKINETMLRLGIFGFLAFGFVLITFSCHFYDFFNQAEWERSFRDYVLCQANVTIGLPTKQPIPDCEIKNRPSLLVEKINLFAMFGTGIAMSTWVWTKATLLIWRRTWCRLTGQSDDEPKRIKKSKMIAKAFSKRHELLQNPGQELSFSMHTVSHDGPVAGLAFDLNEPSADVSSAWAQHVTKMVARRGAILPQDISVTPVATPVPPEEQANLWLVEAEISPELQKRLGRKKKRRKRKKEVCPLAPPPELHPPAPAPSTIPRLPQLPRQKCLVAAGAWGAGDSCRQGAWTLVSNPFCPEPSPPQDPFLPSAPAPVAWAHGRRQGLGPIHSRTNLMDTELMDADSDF
Chain of SMO-D384N (Q99835 28-787 D384N): as the sequence (Q99835 28-787 N219D) above, with D192N, D357N counted along it
Chain of SMO-I408V (Q99835 28-787 I408V): as the sequence (Q99835 28-787 N219D) above, with D192N, I381V counted along it
Chain of SMO-S387N (Q99835 28-787 S387N): as the sequence (Q99835 28-787 N219D) above, with D192N, S360N counted along it

CN(C(=O)c1ccc(F)cc1C(F)(F)F)C1CCN(c2nnc(-c3ccnn3C)c3ccccc23)CC1 [LY2940680]
proliferation in the presence of SMO inhibitor [1]: similarly inhibited the proliferation
proliferation in the presence of SMO inhibitor [2]: continued to proliferate, albeit to differing extents

Cc1c(C(=O)Nc2ccc(N3C[C@@H](C)O[C@@H](C)C3)nc2)cccc1-c1ccc(OC(F)(F)F)cc1 [LDE225, sonidegib]
proliferation in the presence of SMO inhibitor [1]: similarly inhibited the proliferation
proliferation in the presence of SMO inhibitor [2]: continued to proliferate, albeit to differing extents

Cc1sc2c(c1C)C(c1ccc(Cl)cc1)=N[C@@H](CC(=O)OC(C)(C)C)c1nnc(C)n1-2 [JQ1]
proliferation in the presence of bromodomain inhibitor ([2]; 1 μM JQ1): reduced proliferation

CS(=O)(=O)c1ccc(C(=O)Nc2ccc(Cl)c(-c3ccccn3)c2)c(Cl)c1 [vismodegib]
sensitivity to vismodegib compared to SMO-WT (SMO-N219D): reduced sensitivity
sensitivity to vismodegib compared to SMO-WT (SMO-D384N): reduced sensitivity
sensitivity to vismodegib compared to SMO-WT (SMO-S387N): reduced sensitivity
[3H]-vismodegib binding (SMO-I408V): impaired vismodegib binding
vismodegib binding (activating SMO mutants): impaired vismodegib binding
IC50 ([1]; Mus musculus, read-out: IC50, proliferation): ~22 nM
concentration at which proliferation was maximally inhibited ([1]; after removal of SHH ligand): 100 nM
proliferation in the presence of vismodegib [3]: continuing to proliferate at high levels of vismodegib
proliferation in the presence of vismodegib [4]: continued to proliferate at near untreated levels
proliferation in the presence of vismodegib [5]: continued to proliferate at high concentrations of vismodegib
proliferation in the presence of vismodegib [6]: continued to proliferate at high concentrations of vismodegib
proliferation in the presence of vismodegib [7]: continued to proliferate at high concentrations of vismodegib
drug binding in vitro (SMO-D473H): abrogate drug binding
estimated incidence of secondary, or acquired, resistance in BCC (advanced BCC patients): ~ 20 % per year
